Experimental data as given in ChEMBL document CHEMBL1201862, “PubChem BioAssay data set” (2004).
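Where inhibition never reached the appropriate level, the endpoint shown equals the highest concentration tested. Otherwise, values were interpolated linearly from a five-concentration, 48-hour dose response in 96-well plates. GI50 = concentration required for 50% inhibition of growth.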 Activity calls are given as the source filed them. Cut-off read from the data, not from the text of the source: active = GI50 up to about 1.1 µM and inactive = higher.

Tests used:
Assay in all cases: inhibition of tumour cell growth, NCI panel, 48 h
[1] = system: EKVX
[2] = system: HOP-62
[3] = system: SW-620
[4] = system: SN12C
[5] = system: OVCAR-5
[6] = system: NCI-H226
[7] = system: NCI-H23
[8] = system: SF-268
[9] = system: UO-31
[10] = system: HCT-15
[11] = system: CAKI-1
[12] = system: U-251
[13] = system: Malme-3M
[14] = system: K562
[15] = system: A549
[16] = system: OVCAR-8
[17] = system: SK-MEL-5
[18] = system: HT-29
[19] = system: HCT-116
[20] = system: RPMI-8226

Compound	GI50 [1]	GI50 [2]	GI50 [3]	GI50 [4]	GI50 [5]	GI50 [6]	GI50 [7]	GI50 [8]	GI50 [9]	GI50 [10] [µM]	GI50 [11]	GI50 [12]	GI50 [13]	GI50 [14]	GI50 [15]	GI50 [16]	GI50 [17]	GI50 [18]	GI50 [19]	GI50 [20]
COc1ccc(CCCC(=O)O)c(C)c1	> 100 µM (inactive)	26.4 µM (inactive)	59.2 µM (inactive)	32 µM (inactive)	> 100 µM (inactive)	22.7 µM (inactive)	53.3 µM (inactive)	27.4 µM (inactive)	> 100 µM (inactive)	> 100	17.8 µM (inactive)	20.8 µM (inactive)	27.2 µM (inactive)	39.3 µM (inactive)	58.6 µM (inactive)	74.6 µM (inactive)	40.3 µM (inactive)	> 100 µM (inactive)	> 100 µM (inactive)	–
COc1nc2[nH]ccc2c(=O)[nH]1	> 100 µM (inactive)	–	> 100 µM (inactive)	> 100 µM (inactive)	> 100 µM (inactive)	0.41 µM (active)	> 100 µM (inactive)	> 100 µM (inactive)	> 100 µM (inactive)	–	> 100 µM (inactive)	> 100 µM (inactive)	> 100 µM (inactive)	> 100 µM (inactive)	> 100 µM (inactive)	> 100 µM (inactive)	> 100 µM (inactive)	> 100 µM (inactive)	> 100 µM (inactive)	> 100 µM (inactive)
COc1cc(C(=O)C/C(CCC(=O)Nc2ccc(Cl)cc2Cl)=N/NC(=O)C(=O)NN)ccc1O	97.7 µM (inactive)	> 100 µM (inactive)	> 100 µM (inactive)	> 100 µM (inactive)	> 100 µM (inactive)	> 100 µM (inactive)	> 100 µM (inactive)	> 100 µM (inactive)	> 100 µM (inactive)	> 100	46.2 µM (inactive)	> 100 µM (inactive)	> 100 µM (inactive)	28.1 µM (inactive)	> 100 µM (inactive)	> 100 µM (inactive)	> 100 µM (inactive)	> 100 µM (inactive)	> 100 µM (inactive)	–
O=C(NC(COC(=O)C(Cc1ccccc1)NC(=O)c1ccccc1)Cc1ccccc1)c1ccccc1 (stereo unspecified)	> 50 µM (inactive)	> 50 µM (inactive)	> 50 µM (inactive)	–	> 50 µM (inactive)	–	> 50 µM (inactive)	> 50 µM (inactive)	> 50 µM (inactive)	> 50	–	35 µM (inactive)	> 50 µM (inactive)	> 50 µM (inactive)	> 50 µM (inactive)	> 50 µM (inactive)	–	> 50 µM (inactive)	–	> 50 µM (inactive)
COC1/C=C/C(C)C(C(C)C(OC)C(C)CCC(=O)C(C)C(C/C=C/N(C)C=O)OC)OC(=O)/C=C/C=C(\C)CC(OC)CC2=CC(=O)O[C@H](C2)C(C)C(OC)CC(OC)/C=C/C(C)C(OC)C1 (stereo partly specified)	0.084 µM (active)	< 0.005 µM (active)	0.00766 µM (active)	0.014 µM (active)	–	–	0.0521 µM (active)	0.0336 µM (active)	0.0125 µM (active)	< 0.005	< 0.005 µM (active)	–	0.00966 µM (active)	–	0.0288 µM (active)	0.0224 µM (active)	0.00518 µM (active)	< 0.005 µM (active)	< 0.005 µM (active)	< 0.005 µM (active)
Cc1cn(Cc2cnnn2CC2OC(n3cc(C)c(=O)[nH]c3=O)CC2O)c(=O)[nH]c1=O (stereo unspecified)	> 100 µM (inactive)	> 100 µM (inactive)	> 100 µM (inactive)	> 100 µM (inactive)	> 100 µM (inactive)	> 100 µM (inactive)	> 100 µM (inactive)	> 100 µM (inactive)	> 100 µM (inactive)	> 100	> 100 µM (inactive)	> 100 µM (inactive)	> 100 µM (inactive)	–	> 100 µM (inactive)	> 100 µM (inactive)	> 100 µM (inactive)	–	> 100 µM (inactive)	> 100 µM (inactive)
O=c1c(-c2ccccc2)c(SCCCN2CCCCC2)n(-c2ccccc2)c(=S)n1-c1ccccc1	> 100 µM (inactive)	17.8 µM (inactive)	19.6 µM (inactive)	–	> 100 µM (inactive)	15.3 µM (inactive)	19 µM (inactive)	–	–	17.3	19.5 µM (inactive)	15.6 µM (inactive)	21.5 µM (inactive)	14.1 µM (inactive)	–	18.6 µM (inactive)	16 µM (inactive)	–	–	17 µM (inactive)
FC(F)(F)C(C1=NC(C(F)(F)F)(C(F)(F)F)N=C(N2CCOCC2)O1)C(F)(F)F	17.1 µM (inactive)	–	14.2 µM (inactive)	11.1 µM (inactive)	18.1 µM (inactive)	–	> 10 µM (inactive)	36.1 µM (inactive)	25.4 µM (inactive)	26.1	23.2 µM (inactive)	19.9 µM (inactive)	–	–	18.5 µM (inactive)	15.3 µM (inactive)	11.9 µM (inactive)	18.7 µM (inactive)	27.7 µM (inactive)	20.8 µM (inactive)
Cc1ccc([N+](=O)[O-])cc1NC(=O)C(=O)C(C(=O)c1ccccc1F)C1OC(=O)c2ccccc21 (stereo unspecified)	46 µM (inactive)	40.7 µM (inactive)	35.1 µM (inactive)	33.8 µM (inactive)	61.4 µM (inactive)	16 µM (inactive)	38.5 µM (inactive)	25.5 µM (inactive)	49.1 µM (inactive)	26.7	53.8 µM (inactive)	18.1 µM (inactive)	–	32.7 µM (inactive)	50.1 µM (inactive)	25.2 µM (inactive)	63.1 µM (inactive)	38.5 µM (inactive)	31.5 µM (inactive)	29.4 µM (inactive)
COc1ccc(NCC(=O)Nn2c(-c3ccccc3)nc3ccccc3c2=O)cc1	69.2 µM (inactive)	86.1 µM (inactive)	28.2 µM (inactive)	36.6 µM (inactive)	> 100 µM (inactive)	> 100 µM (inactive)	37.2 µM (inactive)	36.2 µM (inactive)	> 100 µM (inactive)	54	–	28.7 µM (inactive)	30 µM (inactive)	24.5 µM (inactive)	53.7 µM (inactive)	31.9 µM (inactive)	14.8 µM (inactive)	32.4 µM (inactive)	> 10 µM (inactive)	24.2 µM (inactive)
CN(C)c1ccc(C2SCC(=O)N2NS(=O)(=O)c2cccc(C(=O)O)c2)cc1 (stereo unspecified)	> 100 µM (inactive)	> 100 µM (inactive)	> 100 µM (inactive)	> 100 µM (inactive)	> 100 µM (inactive)	52 µM (inactive)	> 100 µM (inactive)	> 100 µM (inactive)	72.8 µM (inactive)	76.9	> 100 µM (inactive)	> 100 µM (inactive)	99.8 µM (inactive)	35.6 µM (inactive)	99.3 µM (inactive)	17.7 µM (inactive)	> 100 µM (inactive)	> 100 µM (inactive)	> 100 µM (inactive)	45.9 µM (inactive)
N#CC1(CCCI)CCCC1	47.4 µM (inactive)	–	10.7 µM (inactive)	12.3 µM (inactive)	25.1 µM (inactive)	–	9.79 µM (inactive)	12.6 µM (inactive)	27.9 µM (inactive)	14.5	–	13.4 µM (inactive)	18.8 µM (inactive)	27.7 µM (inactive)	20.6 µM (inactive)	51.1 µM (inactive)	12.9 µM (inactive)	15.2 µM (inactive)	4.18 µM (inactive)	–
CC1(C)COC2C(N(Cc3ccccc3)Cc3ccccc3)C(=O)N21 (stereo unspecified)	73.1 µM (inactive)	36.9 µM (inactive)	35.9 µM (inactive)	47.3 µM (inactive)	> 100 µM (inactive)	47.2 µM (inactive)	34.3 µM (inactive)	25.2 µM (inactive)	64.3 µM (inactive)	39.6	39.2 µM (inactive)	26.3 µM (inactive)	38.6 µM (inactive)	27.9 µM (inactive)	32.6 µM (inactive)	32.1 µM (inactive)	37.2 µM (inactive)	31.8 µM (inactive)	33.4 µM (inactive)	20.9 µM (inactive)
N#Cc1c(-c2ccccc2)cn(C(=O)c2ccccc2)c1N	> 100 µM (inactive)	> 100 µM (inactive)	> 100 µM (inactive)	> 100 µM (inactive)	> 100 µM (inactive)	> 100 µM (inactive)	> 100 µM (inactive)	> 100 µM (inactive)	> 100 µM (inactive)	> 100	–	> 100 µM (inactive)	> 100 µM (inactive)	> 100 µM (inactive)	> 100 µM (inactive)	> 100 µM (inactive)	> 100 µM (inactive)	> 100 µM (inactive)	> 100 µM (inactive)	> 100 µM (inactive)
CCOC(=O)Nc1ccc(S(=O)(=O)NCCCl)cc1.CCOC(=O)Nc1ccc(S(=O)(=O)NCCCl)cc1.O=C(O)c1ccc(/N=N/Cl)cc1O	> 100 µM (inactive)	> 100 µM (inactive)	> 100 µM (inactive)	> 100 µM (inactive)	> 100 µM (inactive)	> 100 µM (inactive)	> 100 µM (inactive)	> 100 µM (inactive)	> 100 µM (inactive)	> 100	> 100 µM (inactive)	> 100 µM (inactive)	> 100 µM (inactive)	> 100 µM (inactive)	> 100 µM (inactive)	> 100 µM (inactive)	> 100 µM (inactive)	> 100 µM (inactive)	–	–
